Measured values from the OligoGym collection.
Values joined by “and” are separate entries in the source; they are usually repeats but may differ in a detail not shown here. Identical values can stand only once. After the bases stand the sugars from the 5' end (letter, count) and the backbone: PS all phosphorothioate, else s phosphorothioate and o phosphodiester by linkage. Methylation of C is not given here. e = 2'-O-(2-methoxyethyl) (MOE); k = constrained ethyl (cEt); d = 2'-deoxy (DNA)

Molecular target: IRF5
Details: ASO

Row | Sequence | target mRNA inhibition (KARPAS-229, 4 µM) | other results
1 | CCAATGCAACATCCAT (sugars k2 d9 e3 k2, PS) | 0% | –
2 | AGGAGTGAGACGAGCA (sugars kekdddddddddeekk, PS) | 22% | –
3 | AGATGGTGTTATCTCC (sugars kkkddddddddkekek, PS) | 0% | –
4 | GTTATCTCCGTTCCTGG (sugars kkkdddddddddkeked, PS) | 0% | –
5 | TCACCACTGTGTACCC (sugars kkddddddddkekekk, PS) | 0% | –
6 | GGAGTGAGACGAGCAA (sugars kkdddddddddkekek, PS) | 27% | –
7 | GAGTCATGGGCTGAGG (sugars k2 d9 e3 k2, PS) | 30% | –
8 | CAGGTTCTTGGACTCT (sugars kkddddddddkekekk, PS) | 0% | –
9 | ACCACTGTGTACCCCA (sugars kkddddddddddkeke, PS) | 66% and 56% | target mRNA inhibition (KARPAS-229, 0.44444 µM): 26%; target mRNA inhibition (KARPAS-229, 1.33333 µM): 38%; target mRNA inhibition (KARPAS-229, 12 µM): 70%
10 | CTAGTGTCATGGAATT (sugars k3 d10 k3, PS) | 34% | –
11 | CCAATTTTGCATTCCA (sugars k2 d8 e4 k2, PS) | 48% | –
12 | GCTGTCACATCTCCAC (sugars k3 d10 k3, PS) | 33% | –
13 | TGAGTCTCAAACCAGG (sugars k3 d10 k3, PS) | 16% | –
14 | CTGACACAGGCGGATG (sugars kdddddddddkekeke, PS) | 0% | –
15 | ATCACCACTGTGTACC (sugars kkddddddddkekekk, PS) | 0% | –
16 | AGATGGTGTTATCTCC (sugars kddddddddddkekek, PS) | 0% | –
17 | GTTCTTGGACTCTCAA (sugars kkddddddddddkeke, PS) | 27% | –
18 | AGCTTGGTCTTGACCT (sugars kkkddddddddkdkdk, PS) | 12% | –
19 | GCTTGGTCTTGACCTC (sugars k2 d8 e4 k2, PS) | 19% | –
20 | ACCACTGTGTACCCCA (sugars kdddddddddkekeke, PS) | 40% | –
21 | GGTGTATTTCCCTGTC (sugars kkddddddddkekekk, PS) | 0% | –
22 | GAGTAATAGGAGTGAG (sugars k3 d10 k3, PS) | 33% | –
23 | GGTTCTTGGACTCTCA (sugars k2 d8 e4 k2, PS) | 54% and 64% | target mRNA inhibition (KARPAS-229, 0.44444 µM): 25%; target mRNA inhibition (KARPAS-229, 1.33333 µM): 51%; target mRNA inhibition (KARPAS-229, 12 µM): 77%
24 | ATTTCTGCTCCAGGTT (sugars kkddddddddkekekk, PS) | 6% | –
25 | AGGAGTGAGACGAGCA (sugars kkdddddddddkekek, PS) | 36% | –
26 | GGTCTTTGAGGTCTGG (sugars k2 d8 e4 k2, PS) | 56% | –

Row | Sequence | target mRNA inhibition (KARPAS-229, 4 µM) | other results
27 | CACCACTGTGTACCCC (sugars kdddddddddkekeke, PS) | 0% | –
28 | AAGGGCACAGCGCAGG (sugars kkkddddddddkdkdk, PS) | 12% | –
29 | ATGAGTCATGGGCTGA (sugars kkddddddddddkeke, PS) | 0% | –
30 | ACATCTCCACATCAGT (sugars kkddddddddddkeke, PS) | 36% | –
31 | TTTCTTGTCTAGTGTC (sugars k3 d10 k3, PS) | 53% | –
32 | GCATTCCATATACACA (sugars kdddddddddkekeke, PS) | 34% | –
33 | TGTCTAGTGTCATGGA (sugars k3 d9 k3 e1, PS) | 39% | –
34 | GGAGTGAGACGAGCAA (sugars k3 d10 k3, PS) | 37% | –
35 | GTTATCTCCGTTCCTGG (sugars kkkddddddddkekekd, PS) | 0% | –
36 | AGATGGTGTTATCTCC (sugars kkddddddddkekekk, PS) | 0% | –
37 | TGTCTAGTGTCATGGA (sugars kkdddddddddkdkdk, PS) | 40% | –
38 | CTTGATTCCAATTTTG (sugars k3 d10 k3, PS) | 20% | –
39 | CCTTCTGCAGGGAGTC (sugars kkddddddddddkeke, PS) | 0% | –
40 | CCCAATGCAACATCCA (sugars k3 d10 k3, PS) | 12% | –
41 | GAGTCATGGGCTGAGG (sugars k2 d8 e4 k2, PS) | 5% | –
42 | TGAGTCATGGGCTGAG (sugars kkddddddddddkeke, PS) | 0% | –
43 | AGCTTGGTCTTGACCT (sugars kekdddddddddeekk, PS) | 38% | –
44 | AGGAAGTGAGTCTCAA (sugars kkkddddddddkdkdk, PS) | 40% | –
45 | CTTGGTCTTGACCTCC (sugars k2 d8 e4 k2, PS) | 20% | –
46 | ATTTCTGCTCCAGGTT (sugars kdddddddddkekeke, PS) | 13% | –
47 | AACCATTCTATGCCTT (sugars k3 d10 k3, PS) | 33% | –
48 | TTATTTCTGCTCCAGG (sugars k3 d10 k3, PS) | 55% and 77% | target mRNA inhibition (KARPAS-229, 0.44444 µM): 51%; target mRNA inhibition (KARPAS-229, 1.33333 µM): 66%; target mRNA inhibition (KARPAS-229, 12 µM): 84%
49 | AGCTTGGTCTTGACCT (sugars kkddddddddkekekk, PS) | 0% | –
50 | CACATCTCCACATCAG (sugars kddddddddddkekek, PS) | 15% | –
51 | CCAATTTTGCATTCCA (sugars k3 d10 k3, PS) | 78% and 83% | target mRNA inhibition (KARPAS-229, 0.44444 µM): 51%; target mRNA inhibition (KARPAS-229, 1.33333 µM): 74%; target mRNA inhibition (KARPAS-229, 12 µM): 89%
